For test [1], the system named is MCF7. Nature of the test: Cytotoxicity against human MCF7 cells assessed as reduction of cell viability at 20 uM after 24 hrs. In kind it is functional, cell-based.
The test system of test [2] is MCF7. Nature of the test: Induction of morphological changes in human MCF7 cells assessed as change in volume of cell at 30 uM after 48 hrs. In kind it is functional, cell-based.
Test [3] concerns SH-SY5Y. Nature of the test: Induction of morphological changes in human SH-SY5Y cells assessed as change in volume of cell at 30 uM after 48 hrs. Type of test: functional, cell-based.
In test [4] the test system is SH-SY5Y. Nature of the test: Induction of morphological changes in human SH-SY5Y cells assessed as change in perimeter of cell at 30 uM after 48 hrs. In kind it is functional, cell-based.
For test [5], the system named is SH-SY5Y. Put plainly: Cytotoxicity against human SH-SY5Y cells assessed as reduction of cell viability at 20 uM after 24 hrs. Type of test: functional, cell-based.
Test [6] concerns SH-SY5Y. Put plainly: Induction of morphological changes in human SH-SY5Y cells assessed as change in cell shape at 30 uM after 48 hrs. In kind it is functional, cell-based.
Test [7] concerns MCF7. Nature of the test: Induction of morphological changes in human MCF7 cells assessed as change in perimeter of cell at 30 uM after 48 hrs. In kind it is functional, cell-based.
Test [8] deals with SH-SY5Y. Nature of the test: Cytotoxicity against human SH-SY5Y cells assessed as reduction of cell viability at 30 uM after 48 hrs. In kind it is functional.
For test [9], the system named is MCF7. Put plainly: Cytotoxicity against human MCF7 cells assessed as reduction of cell viability at 30 uM after 48 hrs. In kind it is functional.
The subject of test [10] is MCF7. Put plainly: Cytotoxicity against human MCF7 cells assessed as reduction of cell viability at 10 uM after 24 hrs. Type of test: functional, cell-based.
For test [11], the system named is SH-SY5Y. Put plainly: Cytotoxicity against human SH-SY5Y cells assessed as reduction of cell viability at 10 uM after 24 hrs. In kind it is functional, cell-based.
Test [12] concerns MCF7. Put plainly: Induction of morphological changes in human MCF7 cells assessed as change in cell shape at 30 uM after 48 hrs. In kind it is functional, cell-based.
In test [13] the test system is SH-SY5Y. Nature of the test: Induction of morphological changes in human SH-SY5Y cells assessed as increase in volume of nucleus at 30 uM after 6 hrs. In kind it is functional, cell-based.
The subject of test [14] is SH-SY5Y. Nature of the test: Induction of morphological changes in human SH-SY5Y cells assessed as cell swelling at 30 uM after 6 hrs. In kind it is functional, cell-based.
The test system of test [15] is MCF7. Put plainly: Induction of morphological changes in human MCF7 cells assessed as increase in volume of nucleus at 30 uM after 6 hrs. In kind it is functional, cell-based.
Test [16] relates to MCF7. Put plainly: Induction of morphological changes in human MCF7 cells assessed as cell swelling at 30 uM after 6 hrs. Type of test: functional, cell-based.
For test [17], the system named is MCF7. Nature of the test: Induction of morphological changes in human MCF7 cells assessed as increase in refringency of the nucleoli at 30 uM after 6 hrs. Type of test: functional, cell-based.
Test [18] deals with SH-SY5Y. Nature of the test: Induction of morphological changes in human SH-SY5Y cells assessed as increase in refringency of the nucleoli at 30 uM after 6 hrs. Type of test: functional, cell-based.
Test [19] concerns SH-SY5Y. Put plainly: Induction of morphological changes in human SH-SY5Y cells assessed as cytoplasm vacuolization at 30 uM after 6 hrs. In kind it is functional, cell-based.
The test system of test [20] is MCF7. Nature of the test: Induction of morphological changes in human MCF7 cells at 30 uM after 24 hrs. In kind it is functional, cell-based.
Test [21] deals with MCF7. Nature of the test: Induction of morphological changes in human MCF7 cells assessed as cytoplasm vacuolization at 30 uM after 6 hrs. In kind it is functional, cell-based.

Active and inactive are the calls of the source. The rule behind the calls is not given here.

For the molecule `O=C1C(c2ccccc2)=C(c2ccc(-c3ccccc3)cc2)C[C@H]2C[C@@H](O)CN12`, the outcome in test [1], in test [2], in test [3], in [4], in test [5] and in test [6] was Active. Further, the outcome in test [7], in test [10], in test [11] and in test [12] was Active. Further, the Activity in test [8] and in test [9] was greater than 70% in each case.
With `O=C1C(c2ccccc2)=C(c2ccccc2)C[C@@H]2C[C@@H](O)CN12`, the result in test [1], in test [5], in [8], in test [9], in test [10] and in test [11] was Active.
With `O=C1C(c2ccccc2)=C(c2ccc(-c3ccccc3)cc2)C[C@@H]2C[C@@H](O)CN12`, the result in test [1], in test [5], in test [10] and in test [11] was Active. Also, the Activity in [8] and in test [9] was greater than 70% in each case.
For `COc1ccc(C2=C(c3ccccc3)C(=O)N3C[C@H](O)C[C@@H]3C2)cc1`, the result in [1], in [5], in test [9], in [10] and in test [11] was Active.
Take `COc1ccc(C2=C(c3ccccc3)C(=O)N3C[C@H](O)C[C@H]3C2)cc1`: the outcome in [1], in [5], in test [8], in test [9], in test [10] and in test [11] was Active.
Regarding `O=C1C(c2ccccc2)=C(c2ccc(Br)cc2)C[C@H]2C[C@@H](O)CN12`, the outcome in [1], in test [5], in test [9], in test [10] and in [11] was Active.
In the case of `Cn1cccc1C1=C(c2ccccc2)C(=O)N2C[C@H](O)C[C@H]2C1`, the result in test [1], in test [5], in test [8], in [9], in test [10] and in test [11] was Active.
For `O=C1C(c2ccccc2)=C(c2ccccc2)C[C@H]2C[C@@H](O)CN12`, the result in [1], in test [5], in test [8], in test [9], in test [10] and in test [11] was Active.
For the molecule `Cn1cccc1C1=C(c2ccccc2)C(=O)N2C[C@H](O)C[C@@H]2C1`, the result in [1], in test [5], in test [8], in test [9], in [10] and in [11] was Active.
Turning to `O=C1C(c2ccccc2)=C(c2ccc(Br)cc2)C[C@@H]2C[C@@H](O)CN12`, the result in test [1], in test [5], in test [8], in test [9], in [10] and in test [11] was Active.
For `O=C(C[C@@H]1C[C@@H](O)CN1C(=O)Cc1ccccc1)c1ccc(-c2ccccc2)cc1`, the outcome in test [10] and in [11] was Active.
Take `O=C(C[C@H]1C[C@@H](O)CN1C(=O)Cc1ccccc1)c1ccc(-c2ccccc2)cc1`: the outcome in [13], in test [14], in test [15], in test [16], in test [17] and in test [18] was Active. Further, the outcome in test [19], in test [10], in [20], in [11] and in test [21] was Active.
